Literature values as cited in patent US7253193B2, “Cyanoguanidine prodrugs” (LEO Pharma A/S, priority 2002, dated 2007).

Tests used:
[1] = tested on: human lung and breast cancer cell lines
[2] = tested on: human lung cancer tumour xenograft
human tumour cells = details: also against tumour cells resistant to conventional anticancer drugs such as paclitaxel

N#CNC(=Nc1ccncc1)NCCCCCCOc1ccc(Cl)cc1 [N-(6-(4-chlorophenoxy)hexyl)-N′-cyano-N″-(4-pyridyl)guanidine]
antiproliferative activity in vitro [1]: high antiproliferative activity in vitro | antitumour activity in the nude mouse model [2]: potent antitumour activity | antitumour activity in vivo (human tumour cells): substantial antitumour activity
